Data: patent EP1698638A1, “Lipopeptides having pharmaceutical activity” (Technische Universität Berlin, priority 2005, dated 2006)

Columns and labels:
Candida glabrata = experiment: disk diffusion assay on malt agar plates; format: cell-based; conditions: 10 µg in 30 µL 50% MeOH per disk
Candida albicans [1] = experiment: disk diffusion assay on malt agar plates; format: cell-based; conditions: 10 µg in 30 µL 50% MeOH per disk
ATCC 6258 (QC) = experiment: microdilution assay (NCCLS), inhibitory concentration (IC); format: cell-based, Candida krusei
Protocol: (§1) More specifically, a determination of inhibitory concentration (IC) of hassallidin A and hassallidin B for various fungi, Candida species and Candida strains were performed with different media (RPMI-1640 or SAB or AM3) in a microdilution assay by following the guidelines in NCCLS documents M^38-P^25 and M27-A2^26 carried out as follows Each substance was dissolved with 100% dimethyl sulfoxide (Serva, Heidelberg, Germany) to give a stock solution of 3.2 mg/ml followed by nine log2 dilution steps with the solvent. This served as a 100-fold concentrated dilution series ranging from 1.6 mg/ml to 0.003 mg/ml of the test substance. The final concentration of the test substance was 16 µg/ml to 0.031 µg/ml.
(§2) Therefore the 100-fold concentrated dilution series (with 100% DMSO) was diluted to the final concentration by two dilution steps: • (1) Each concentration of the 100-fold concentrated substance was diluted with test medium for 1:50 (for ex.: adding of 13 µl of the test substance to 637 µl test medium). • (2) 100 µl of each 1:50 diluted concentration was filled in a row of wells of a microtitre plate. One well was without the substance but with the 1:50 diluted solvent serving as growth control.
(§3) A further 1:2 dilution of the antifungal was made by the inoculation of each well with 100 µl of the test organism, which was suspended in the test medium. The remaining well of the row was used for sterility control of the medium. The inoculum was strictly prepared according the NCCLS^25 guidelines, resulting in […] for Candida-species and Cryptococcus neoformans. For hyphomycetes CFU's were tenfold higher (see NCCLS). ^26 The growth of the hyphomycetes respectively the inhibition was measured by visual reading with the help of a reading mirror; scoring was done according to NCCLS :^26 score 0 corresponds to a optical clear well or an IC95 or higher, score 1 corresponds to an inhibition of 80 percent (IC80) and the score 2 of the NCCLS definition corresponds to the IC50 values in the tables. The growth of the yeasts was measured spectrophotometrically by a microplate reader (MR 5000, Dynatech laboratories) at 630 nm displaying the optical density (OD). The percent inhibition IC50, IC80 or IC95 (corresponding the scores of 2, 1 and 0) was calculated by the following formula: (100−[(ODof the well−ODof the medium)] × 100)/((ODof the growth control−ODof the medium).) [formula] Table 3. Test series for determining IC values of hassallidin A and B in different media using Candida albicans and Candida krusei. The IC values were measured after 24 h and 48 h at 30 °C.

Candida albicans SC 5314 = experiment: as above; format: cell-based
Protocol: as §1, §2, §3

Ustilago maydis = experiment: disk diffusion assay on malt agar plates; format: cell-based; conditions: 10 µg in 30 µL 50% MeOH per disk
Aspergillus fumigatus [2] = experiment: disk diffusion assay on malt agar plates; format: cell-based; conditions: 10 µg in 30 µL 50% MeOH per disk
Fusarium sambucium = experiment: disk diffusion assay on malt agar plates; format: cell-based; conditions: 10 µg in 30 µL 50% MeOH per disk
Candida albicans [3] = experiment: serial dilution test, minimum inhibitory concentration (MIC); format: cell-based; conditions: RPMI-1640 medium, 35 °C, 24 h
Protocol: (§4) The antifungal activity of the compounds according to the present invention, in particular hassallidin A and hassallidin B, was verified for Aspergillus fumigatus and Candida albicans by minimum inhibitory concentration (MIC) data in a serial dilution test. For each fungus six testing wells of a microtiter plate were prepared with 240 µL medium (Sigma RPMI-1640), 10 µL inoculum suspension and 50 µL fungicide solution (50% MeOH) of different concentrations. Inoculum preparation was carried out by guideline of NCCLS.^25 The fungicide solution preparation took place in a series of twofold dilutions from a stock solution of 92 µg/mL starting with 4.6 µg/50 µL down to 0.14 µg/50 µL. One well was prepared without antifungal agent for unhindered growth as control. The microtiter plates were incubated for Candida albicans and Aspergillus fumigatus at 35 °C for 24 h and 48 h, respectively. Tests were run in triplicates. Inhibition of growth was assessed by comparing the fungal growth of the test samples with the control well by determination of optical density at 595 nm in a microplate reader. The concentration of the well at highest dilution that was still free from growth was assigned the minimum inhibitory concentration (MIC in µg/mL). […] No activities were observed by using Bacillus subtilis, Streptomyces versicolor or Escherchia coli in disk diffusion assays on LB-agar plates with 10 µg hassallidin A in 30 µL 50% MeOH per disk.

Aspergillus fumigatus [4] = experiment: as above; format: cell-based; conditions: RPMI-1640 medium, 35 °C, 48 h
Protocol: as §4

Aspergillus niger = experiment: disk diffusion assay on malt agar plates; format: cell-based; conditions: 10 µg in 30 µL 50% MeOH per disk
Penicillium sp. = experiment: disk diffusion assay on malt agar plates; format: cell-based; conditions: 10 µg in 30 µL 50% MeOH per disk
[5] = Table 3 series, RPMI, 30 °C, 24h
[6] = Table 3 series, RPMI, 30 °C, 48h
[7] = Table 4 series, RPMI-1640 medium, 30°C/24h
[8] = Table 4 series, RPMI-1640 medium, 30°C/48h
[9] = Table 4 series, RPMI-1640 medium, 35°C/24h
[10] = Table 4 series, RPMI-1640 medium, 35°C/48h
[11] = Table 3 series, AM3, 30 °C, 24h
[12] = Table 3 series, AM3, 30 °C, 48h
[13] = Table 3 series, SAB, 30 °C, 24h
[14] = Table 3 series, SAB, 30 °C, 48h

hassallidin A was tested, and the “antifungal activity in disk diffusion assay” value (“antifungal activity” below) (Candida glabrata) was “precise antifungal activity”, the “antifungal activity” value (Candida albicans [1]) was “precise antifungal activity” and the IC50 (ATCC 6258 (QC); [5]) was 16 µg/mL. For the same substance, the IC80 (ATCC 6258 (QC); [5]) was 16 µg/mL, the IC95 (ATCC 6258 (QC); [5]) was 16 µg/mL and the IC50 (ATCC 6258 (QC); [6]) was 16 µg/mL. It also gave an IC80 (ATCC 6258 (QC); [6]) of 16 µg/mL, an IC95 (ATCC 6258 (QC); [6]) of 16 µg/mL and an IC50 (ATCC 6258 (QC); [7]) of 8 µg/mL. For the same substance, the IC80 (ATCC 6258 (QC); [7]) was 8 µg/mL, the IC95 (ATCC 6258 (QC); [7]) was 8 µg/mL and the IC50 (ATCC 6258 (QC); [8]) was 8 µg/mL. For the same substance, the IC80 (ATCC 6258 (QC); [8]) was 8 µg/mL, the IC95 (ATCC 6258 (QC); [8]) was 8 µg/mL and the IC50 (ATCC 6258 (QC); [9]) was 8 µg/mL. For the same substance, the IC50 (ATCC 6258 (QC); [10]) was 16 µg/mL, the IC95 (ATCC 6258 (QC); [10]) was 16 µg/mL and the IC50 (Candida albicans SC 5314; [11]) was 4 µg/mL. It also gave an IC80 (Candida albicans SC 5314; [11]) of 4 µg/mL, an IC95 (Candida albicans SC 5314; [11]) of 4 µg/mL and an IC50 (Candida albicans SC 5314; [12]) of 8 µg/mL. For the same substance, the IC80 (Candida albicans SC 5314; [12]) was 8 µg/mL, the IC95 (Candida albicans SC 5314; [12]) was 8 µg/mL and the IC50 (Candida albicans SC 5314; [5]) was 16 µg/mL. It also gave an IC80 (Candida albicans SC 5314; [5]) of 16 µg/mL, an IC95 (Candida albicans SC 5314; [5]) of 16 µg/mL and an IC50 (Candida albicans SC 5314; [6]) of 16 µg/mL. The IC80 (Candida albicans SC 5314; [6]) was 16 µg/mL, the IC95 (Candida albicans SC 5314; [6]) was 16 µg/mL and the IC50 (Candida albicans SC 5314; [13]) was 4 µg/mL. For the same substance, the IC80 (Candida albicans SC 5314; [13]) was 4 µg/mL, the IC95 (Candida albicans SC 5314; [13]) was 4 µg/mL and the IC50 (Candida albicans SC 5314; [14]) was 8 µg/mL. The IC80 (Candida albicans SC 5314; [14]) was 8 µg/mL, the IC95 (Candida albicans SC 5314; [14]) was 8 µg/mL and the IC50 (Candida albicans SC 5314; [9]) was 8 µg/mL. It also gave an IC80 (Candida albicans SC 5314; [9]) of 8 µg/mL, an IC95 (Candida albicans SC 5314; [9]) of 8 µg/mL and an IC50 (Candida albicans SC 5314; [10]) of 8 µg/mL. For the same substance, the IC80 (Candida albicans SC 5314; [10]) was 8 µg/mL, the IC95 (Candida albicans SC 5314; [10]) was 8 µg/mL and the “antifungal activity” value (Ustilago maydis) was “precise antifungal activity”. The “antifungal activity” value (Aspergillus fumigatus [2]) was “precise antifungal activity”, the “antifungal activity” value (Fusarium sambucium) was “precise antifungal activity” and the MIC (Candida albicans [3]) was 4.8 µg/mL. The MIC (Aspergillus fumigatus [4]) was 4.8 µg/mL, the “antifungal activity” value (Aspergillus niger) was “precise antifungal activity” and the “antifungal activity” value (Penicillium sp.) was “precise antifungal activity”.

With hassallidin B the “antifungal activity” value (Candida glabrata) was “precise antifungal activity”, the “antifungal activity” value (Candida albicans [1]) was “precise antifungal activity” and the IC50 (ATCC 6258 (QC); [5]) was 16 µg/mL. For the same substance, the IC80 (ATCC 6258 (QC); [5]) was 16 µg/mL, the IC95 (ATCC 6258 (QC); [5]) was 16 µg/mL and the IC50 (ATCC 6258 (QC); [6]) was 16 µg/mL. It also gave an IC80 (ATCC 6258 (QC); [6]) of 16 µg/mL, an IC95 (ATCC 6258 (QC); [6]) of 16 µg/mL and an IC50 (Candida albicans SC 5314; [11]) of 4 µg/mL. The IC80 (Candida albicans SC 5314; [11]) was 4 µg/mL, the IC95 (Candida albicans SC 5314; [11]) was 4 µg/mL and the IC50 (Candida albicans SC 5314; [12]) was 8 µg/mL. It also gave an IC80 (Candida albicans SC 5314; [12]) of 8 µg/mL, an IC95 (Candida albicans SC 5314; [12]) of 8 µg/mL and an IC50 (Candida albicans SC 5314; [5]) of 16 µg/mL. The IC80 (Candida albicans SC 5314; [5]) was 16 µg/mL, the IC95 (Candida albicans SC 5314; [5]) was 16 µg/mL and the IC50 (Candida albicans SC 5314; [6]) was 16 µg/mL. It also gave an IC80 (Candida albicans SC 5314; [6]) of 16 µg/mL, an IC95 (Candida albicans SC 5314; [6]) of 16 µg/mL and an IC50 (Candida albicans SC 5314; [13]) of 8 µg/mL. For the same substance, the IC80 (Candida albicans SC 5314; [13]) was 8 µg/mL, the IC95 (Candida albicans SC 5314; [13]) was 8 µg/mL and the IC50 (Candida albicans SC 5314; [14]) was 8 µg/mL. The IC80 (Candida albicans SC 5314; [14]) was 8 µg/mL, the IC95 (Candida albicans SC 5314; [14]) was 8 µg/mL and the “antifungal activity” value (Ustilago maydis) was “precise antifungal activity”. For the same substance, the “antifungal activity” value (Aspergillus fumigatus [2]) was “precise antifungal activity”, the “antifungal activity” value (Fusarium sambucium) was “precise antifungal activity” and the MIC (Candida albicans [3]) was 4.8 µg/mL. The MIC (Aspergillus fumigatus [4]) was 4.8 µg/mL, the “antifungal activity” value (Aspergillus niger) was “precise antifungal activity” and the “antifungal activity” value (Penicillium sp.) was “precise antifungal activity”.
